How the values were obtained:
[1] = tested on: gastric acid secretion; assay: Gastric Antisecretory Activity in the Gastric Fistula Rat; type: in vivo, Male Long Evans rats; settings: sc; for Potency Ratio (cimetidine = 1.0): gastric fistula rat, relative to cimetidine
[2] = tested on: peptic ulcer disease; settings: clinical evaluation, Gray et al., Lancet, 1, 8001 (1977); cited from earlier work

SMILES	Potency Ratio (cimetidine = 1.0) [1]	effectiveness in the treatment of peptic ulcer disease [2]	ED50 ([1]; Rattus norvegicus, read-out: ED50 sc)
CN(C)Cc1ccc(CSCCNc2nsnc2N)o1 [Example 2, 3-Amino-4-{2-[(5-dimethylaminomethyl-2-furyl)methylthio]ethylamino}-1,2,5-thiadiazole]	4.5		
Cc1cc(CSCCNc2nsnc2N)sc1CN(C)C [Example 3, 3-Amino-4-{2-[(5-dimethylaminomethyl-4-methyl-2-thienyl)methylthio]ethylamino}-1,2,5-thiadiazole]	~ 7		
CN/C(=N/CCSCc1nc[nH]c1C)NC#N [cimetidine, reference compound]		effective therapeutic agent in the treatment of peptic ulcer disease	3.48 µmol/kg
Nc1nsnc1NCCCOc1cccc(CN2CCCC2)c1 [Example 4, 3-Amino-4-[3-(3-pyrrolidinomethylphenoxy)propylamino]-1,2,5-thiadiazole]	20		
Nc1nsnc1NCCCOc1cccc(CN2CCCCC2)c1 [Example 1, 3-Amino-4-[3-(3-piperidinomethylphenoxy)propylamino]-1,2,5-thiadiazole]	37		

Source: patent publication US4528375A, “Substituted 3,4-diamino-1,2,5-thiadiazoles having histamine H2 -receptor antagonist activity” (Bristol-Myers Company, priority 1984, dated 1985)
